Measurements reported in PubChem BioAssay (NCI).
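Following 48 hours of exposure in 96-well plates, responses at five concentrations were used to interpolate endpoints linearly. GI50: concentration for 50% inhibition of growth. TGI denotes the concentration required for complete inhibition of growth.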

Experiments:
Assay in all cases: growth of human tumour cells (NCI), 48 h
K-562 leukemia = test system: K-562 leukemia
SW-620 colon = test system: SW-620 colon
IGROV1 ovarian = test system: IGROV1 ovarian
UO-31 renal = test system: UO-31 renal
MOLT-4 leukemia = test system: MOLT-4 leukemia
OVCAR-4 ovarian = test system: OVCAR-4 ovarian
HT29 colon = test system: HT29 colon
HS 578T breast = test system: HS 578T breast
NCI-H23 lung = test system: NCI-H23 lung
RXF 393 renal = test system: RXF 393 renal
HOP-92 NSCLC = test system: HOP-92 NSCLC
HL-60(TB) leukemia = test system: HL-60(TB) leukemia
NCI-H522 lung = test system: NCI-H522 lung
BT-549 breast = test system: BT-549 breast
SR leukemia = test system: SR leukemia
COLO 205 colon = test system: COLO 205 colon
LOX IMVI melanoma = test system: LOX IMVI melanoma
UACC-257 melanoma = test system: UACC-257 melanoma
SNB-19 CNS = test system: SNB-19 CNS
786-0 renal = test system: 786-0 renal
SK-MEL-28 melanoma = test system: SK-MEL-28 melanoma
TK-10 renal = test system: TK-10 renal
MALME-3M melanoma = test system: MALME-3M melanoma
NCI-H226 lung = test system: NCI-H226 lung
A549 NSCLC = test system: A549 NSCLC
OVCAR-3 ovarian = test system: OVCAR-3 ovarian
A498 renal = test system: A498 renal
NCI/ADR-RES ovarian = test system: NCI/ADR-RES ovarian
SK-MEL-5 melanoma = test system: SK-MEL-5 melanoma
U251 CNS = test system: U251 CNS
T-47D breast = test system: T-47D breast
HOP-62 NSCLC = test system: HOP-62 NSCLC
HCC-2998 colon = test system: HCC-2998 colon
SF-539 CNS = test system: SF-539 CNS
OVCAR-5 ovarian = test system: OVCAR-5 ovarian
UACC-62 melanoma = test system: UACC-62 melanoma
SK-OV-3 ovarian = test system: SK-OV-3 ovarian
RPMI-8226 leukemia = test system: RPMI-8226 leukemia
MCF7 breast = test system: MCF7 breast
ACHN renal = test system: ACHN renal
OVCAR-8 ovarian = test system: OVCAR-8 ovarian
SF-295 CNS = test system: SF-295 CNS
SNB-75 CNS = test system: SNB-75 CNS
NCI-H460 lung = test system: NCI-H460 lung
HCT-116 colon = test system: HCT-116 colon
SF-268 CNS = test system: SF-268 CNS
PC-3 prostate = test system: PC-3 prostate
MDA-MB-231 breast = test system: MDA-MB-231 breast
CAKI-1 renal = test system: CAKI-1 renal
MDA-MB-435 = test system: MDA-MB-435
SN12C renal = test system: SN12C renal
HCT-15 colon = test system: HCT-15 colon
DU-145 prostate = test system: DU-145 prostate
M14 melanoma = test system: M14 melanoma
SK-MEL-2 melanoma = test system: SK-MEL-2 melanoma
KM12 colon = test system: KM12 colon

COc1cc(C(=O)/C=C/c2cccc(Nc3ccnc4cc(Cl)ccc34)c2)cc(OC)c1OC
GI50 (K-562 leukemia): 403 nM
TGI (K-562 leukemia): 3.23 µM
GI50 (SW-620 colon): 445 nM
TGI (SW-620 colon): 2.44 µM
GI50 (IGROV1 ovarian): 1.32 µM
TGI (IGROV1 ovarian): 3.8 µM
GI50 (UO-31 renal): 566 nM
TGI (UO-31 renal): 1.95 µM
GI50 (MOLT-4 leukemia): 1790 nM
TGI (MOLT-4 leukemia): 6.46 µM
GI50 (OVCAR-4 ovarian): 1.26 µM
TGI (OVCAR-4 ovarian): 2.57 µM
GI50 (HT29 colon): 323 nM
TGI (HT29 colon): 1.3 µM
GI50 (HS 578T breast): 2.49 µM
TGI (HS 578T breast): 14.2 µM
GI50 (NCI-H23 lung): 1670 nM
TGI (NCI-H23 lung): 3.68 µM
GI50 (RXF 393 renal): 1080 nM
TGI (RXF 393 renal): 2.48 µM
GI50 (HOP-92 NSCLC): 1470 nM
TGI (HOP-92 NSCLC): 5.84 µM
GI50 (HL-60(TB) leukemia): 1820 nM
TGI (HL-60(TB) leukemia): 4.52 µM
GI50 (NCI-H522 lung): 594 nM
TGI (NCI-H522 lung): 2250 nM
GI50 (BT-549 breast): 1230 nM
TGI (BT-549 breast): 2.84 µM
GI50 (SR leukemia): 324 nM
TGI (SR leukemia): 1420 nM
GI50 (COLO 205 colon): 1.34 µM
TGI (COLO 205 colon): 3.69 µM
GI50 (LOX IMVI melanoma): 373 nM
TGI (LOX IMVI melanoma): 1.46 µM
GI50 (UACC-257 melanoma): 1430 nM
TGI (UACC-257 melanoma): 3.06 µM
GI50 (SNB-19 CNS): 1.18 µM
TGI (SNB-19 CNS): 2.45 µM
GI50 (786-0 renal): 0.564 µM
TGI (786-0 renal): 1.95 µM
GI50 (SK-MEL-28 melanoma): 1.51 µM
TGI (SK-MEL-28 melanoma): 3.01 µM
GI50 (TK-10 renal): 1.45 µM
TGI (TK-10 renal): 2.97 µM
GI50 (MALME-3M melanoma): 1.46 µM
TGI (MALME-3M melanoma): 3.38 µM
GI50 (NCI-H226 lung): 1.27 µM
TGI (NCI-H226 lung): 2.95 µM
GI50 (A549 NSCLC): 1480 nM
TGI (A549 NSCLC): 3.91 µM
GI50 (OVCAR-3 ovarian): 0.389 µM
TGI (OVCAR-3 ovarian): 1.39 µM
GI50 (A498 renal): 1.54 µM
TGI (A498 renal): 4.21 µM
GI50 (NCI/ADR-RES ovarian): 0.409 µM
TGI (NCI/ADR-RES ovarian): 2940 nM
GI50 (SK-MEL-5 melanoma): 1380 nM
TGI (SK-MEL-5 melanoma): 2.67 µM
GI50 (U251 CNS): 0.911 µM
TGI (U251 CNS): 2.24 µM
GI50 (T-47D breast): 1.22 µM
TGI (T-47D breast): 3.17 µM
GI50 (HOP-62 NSCLC): 0.676 µM
TGI (HOP-62 NSCLC): 2.27 µM
GI50 (HCC-2998 colon): 1.72 µM
TGI (HCC-2998 colon): 3.21 µM
GI50 (SF-539 CNS): 1.36 µM
TGI (SF-539 CNS): 2.68 µM
GI50 (OVCAR-5 ovarian): 1.7 µM
TGI (OVCAR-5 ovarian): 3.29 µM
GI50 (UACC-62 melanoma): 1.03 µM
TGI (UACC-62 melanoma): 2.36 µM
GI50 (SK-OV-3 ovarian): 1.94 µM
TGI (SK-OV-3 ovarian): 4.51 µM
GI50 (RPMI-8226 leukemia): 312 nM
TGI (RPMI-8226 leukemia): 1.42 µM
GI50 (MCF7 breast): 609 nM
TGI (MCF7 breast): 2.06 µM
GI50 (ACHN renal): 1.24 µM
TGI (ACHN renal): 2.49 µM
GI50 (OVCAR-8 ovarian): 0.524 µM
TGI (OVCAR-8 ovarian): 2.12 µM
GI50 (SF-295 CNS): 1.42 µM
TGI (SF-295 CNS): 3.03 µM
GI50 (SNB-75 CNS): 1.31 µM
TGI (SNB-75 CNS): 3.64 µM
GI50 (NCI-H460 lung): 1.91 µM
TGI (NCI-H460 lung): 4.49 µM
GI50 (HCT-116 colon): 347 nM
TGI (HCT-116 colon): 1.29 µM

CCc1ccc(Nc2cc(C)c3ccc(O)cc3n2)cc1
GI50 (K-562 leukemia): 3200 nM
TGI (K-562 leukemia): 15.4 µM
GI50 (SW-620 colon): 5480 nM
TGI (SW-620 colon): 20.2 µM
GI50 (IGROV1 ovarian): 6.14 µM
TGI (IGROV1 ovarian): 20.8 µM
GI50 (SF-268 CNS): 11.2 µM
TGI (SF-268 CNS): 30.3 µM
GI50 (UO-31 renal): 4540 nM
TGI (UO-31 renal): 23 µM
GI50 (MOLT-4 leukemia): 3600 nM
TGI (MOLT-4 leukemia): 19 µM
GI50 (OVCAR-4 ovarian): 12.4 µM
TGI (OVCAR-4 ovarian): 30.9 µM
GI50 (HT29 colon): 3570 nM
TGI (HT29 colon): 12.5 µM
GI50 (HS 578T breast): 10.3 µM
TGI (HS 578T breast): 31.8 µM
GI50 (NCI-H23 lung): 3340 nM
TGI (NCI-H23 lung): 15.6 µM
GI50 (RXF 393 renal): 4080 nM
TGI (RXF 393 renal): 17.1 µM
GI50 (HOP-92 NSCLC): 2810 nM
TGI (HOP-92 NSCLC): 10.8 µM
GI50 (HL-60(TB) leukemia): 3320 nM
TGI (HL-60(TB) leukemia): 12.5 µM
GI50 (PC-3 prostate): 4.79 µM
TGI (PC-3 prostate): 18.5 µM
GI50 (BT-549 breast): 4480 nM
TGI (BT-549 breast): 16.3 µM
GI50 (COLO 205 colon): 10.4 µM
TGI (COLO 205 colon): 24.3 µM
GI50 (LOX IMVI melanoma): 5030 nM
TGI (LOX IMVI melanoma): 18.5 µM
GI50 (SNB-19 CNS): 13 µM
TGI (SNB-19 CNS): 32.1 µM
GI50 (786-0 renal): 6.07 µM
TGI (786-0 renal): 19.9 µM
GI50 (SK-MEL-28 melanoma): 11.7 µM
TGI (SK-MEL-28 melanoma): 24.7 µM
GI50 (TK-10 renal): 14.1 µM
TGI (TK-10 renal): 27.8 µM
GI50 (MALME-3M melanoma): 6.19 µM
TGI (MALME-3M melanoma): 19 µM
GI50 (NCI-H226 lung): 19.8 µM
TGI (NCI-H226 lung): 54.3 µM
GI50 (OVCAR-3 ovarian): 11.7 µM
TGI (OVCAR-3 ovarian): 27.8 µM
GI50 (MDA-MB-231 breast): 3.12 µM
TGI (MDA-MB-231 breast): 13.7 µM
GI50 (A498 renal): 16.6 µM
TGI (A498 renal): 30.6 µM
GI50 (CAKI-1 renal): 4.92 µM
TGI (CAKI-1 renal): 19 µM
GI50 (MDA-MB-435): 6.94 µM
TGI (MDA-MB-435): 20.3 µM
GI50 (NCI/ADR-RES ovarian): 6.44 µM
TGI (NCI/ADR-RES ovarian): > 100000 nM
GI50 (SK-MEL-5 melanoma): 4080 nM
TGI (SK-MEL-5 melanoma): 14.3 µM
GI50 (U251 CNS): 6.84 µM
TGI (U251 CNS): 22.5 µM
GI50 (T-47D breast): 4.83 µM
TGI (T-47D breast): 23.3 µM
GI50 (HOP-62 NSCLC): 11.5 µM
TGI (HOP-62 NSCLC): 24.3 µM
GI50 (HCC-2998 colon): 5.18 µM
TGI (HCC-2998 colon): 17.4 µM
GI50 (SF-539 CNS): 5.74 µM
TGI (SF-539 CNS): 19.1 µM
GI50 (OVCAR-5 ovarian): 8.49 µM
TGI (OVCAR-5 ovarian): 21.3 µM
GI50 (UACC-62 melanoma): 8.57 µM
TGI (UACC-62 melanoma): 22.1 µM
GI50 (SK-OV-3 ovarian): 12.6 µM
TGI (SK-OV-3 ovarian): 25.2 µM
GI50 (SN12C renal): 6.24 µM
TGI (SN12C renal): 23.5 µM
GI50 (HCT-15 colon): 2950 nM
TGI (HCT-15 colon): 12.8 µM
GI50 (RPMI-8226 leukemia): 3190 nM
TGI (RPMI-8226 leukemia): 20.2 µM
GI50 (MCF7 breast): 4750 nM
TGI (MCF7 breast): 22.4 µM
GI50 (ACHN renal): 5.82 µM
TGI (ACHN renal): 19.5 µM
GI50 (DU-145 prostate): 12.1 µM
TGI (DU-145 prostate): 28.1 µM
GI50 (M14 melanoma): 5.42 µM
TGI (M14 melanoma): 18.1 µM
GI50 (OVCAR-8 ovarian): 10.8 µM
TGI (OVCAR-8 ovarian): 35.3 µM
GI50 (SF-295 CNS): 5.06 µM
TGI (SF-295 CNS): 20.3 µM
GI50 (SK-MEL-2 melanoma): 9.97 µM
TGI (SK-MEL-2 melanoma): 23.6 µM
GI50 (KM12 colon): 6.01 µM
TGI (KM12 colon): 21.2 µM
GI50 (SNB-75 CNS): 11.3 µM
TGI (SNB-75 CNS): 24.8 µM
GI50 (NCI-H460 lung): 4.92 µM
TGI (NCI-H460 lung): 22 µM
GI50 (HCT-116 colon): 4570 nM
TGI (HCT-116 colon): 17.4 µM
